Experimental data as given in patent US8859466B2, “Oxaspirocyclic spiro-substituted tetramic acid and tetronic acid derivatives” (Bayer CropScience AG, priority 2007, dated 2014).

Assays:
[1] = system: green peach aphid (Myzus persicaei); experiment: Myzus persicae test (MYZUPE) with ammonium salts and/or penetrants; format: in vivo; conditions: for % efficacy after 6 days +AMS: +AMS (ammonium sulphate) 1000 ppm; for % efficacy after 6 days +RME: +RME (rapeseed oil methyl ester) 1000 ppm; for % efficacy after 6 days +RME + AMS: each 1000 ppm
Description: Myzus persicae Test (MYZUPE)
Solvent: 7 parts by weight of dimethylformamide
(§1) Emulsifier: 2 parts by weight of alkylaryl polyglycol ether
(§2) To produce a suitable preparation of active compound, 1 part by weight of active compound is mixed with the stated amounts of solvents and emulsifier, and the concentrate is diluted with emulsifier-containing water to the desired concentration. For the required application of ammonium salts, penetrants or ammonium salts and penetrants, these are in each case added with a pipette after dilution of the respective finished solution of the preparation at a concentration of 1000 ppm.
Paprika plants (Capsicum annuum) which are heavily infested by the green peach aphid (Myzus persicaei) are treated by being sprayed with the preparation of active compound of the desired concentration.
After the desired period of time, the kill in % is determined. 100% means that all animals have been killed; 0% means that none of the animals have been killed.

[2] = system: cotton aphid (Aphis gossypii); experiment: Aphis gossypii test (APHIGO) with ammonium salts and/or penetrants; format: in vivo; conditions: for % efficacy after 6 days +AMS: +AMS (ammonium sulphate) 1000 ppm; for % efficacy after 6 days +RME: +RME (rapeseed oil methyl ester) 1000 ppm; for % efficacy after 6 days +RME + AMS: each 1000 ppm
Description: Aphis gossypii Test (APHIGO)
Solvents: 7 parts by weight of dimethylformamide
as §1, §2
Cotton leaves (Gossypium hirsutum) which are heavily infested by the cotton aphid (Aphis gossypii) are sprayed with an active compound preparation of the desired concentration.
After the desired period of time, the kill in % is determined. 100% means that all aphids have been killed; 0% means that none of the aphids have been killed.

cereal = experiment: Herbicidal post-emergence action with use of safeners, container trials with cereal in a greenhouse (other cereal crop plants); format: in vivo; conditions: 10 days after application
Description: (§3) 1. Herbicidal Post-Emergence Action • Seeds of monocotyledonous and dicotyledonous weed and crop plants are placed in sandy loam in wood fibre pots or in plastic pots, covered with soil and cultivated in a greenhouse, during the vegetation period also outdoors outside of the greenhouse, under good growth conditions. 2 to 3 weeks after sowing, the test plants are treated at one- to three-leaf stage. The test compounds, formulated as wettable powders (WP) or liquid (EC) are, at a water application rate of 300 l/ha (converted), with wetting agent (0.2 to 0.3%) added, sprayed at various dosages onto the plants and the surface of the soil. 3 to 4 weeks after treatment of the test plants, the effect of the preparations is rated visually in comparison to untreated controls (herbicidal activity in percent: 100% activity=the plants have died, 0% activity=like control plants).
(§4) Use of Safeners: • If it is additionally to be tested as to whether safeners can improve the plant compatibility of test substances in the case of crop plants, the following options are used for applying the safeners: • seeds of the crop plants are, before sowing, dressed with the safener substance (the amount of safener stated in percent, based on the weight of the seed) • before application of the test substances, the crop plants are sprayed with the safener at a certain application rate per hectare (usually 1 day before the application of the test substances) • the safener is applied together with the test substance as a tank mix (the amount of safener stated in g/ha or as a ratio, based on the herbicide). • Container trials with cereal in a greenhouse • mefenpyr 1 day prior to herbicide application

Summer wheat = experiment: Herbicidal post-emergence action with use of safeners, container trials with cereal in a greenhouse; format: in vivo; conditions: 28 days after application
Description: as §3, §4

[3] = Determination of the logP values by HPLC on a reverse-phase column (C 18); format: physicochemical; conditions: for log P: HPLC, reverse-phase C 18, acidic range (pH 3.4), 55° C.
Description: Determination of the logP Values
The logP values given in the table were determined in accordance with EEC Directive 79/831 Annex V.A8 by HPLC (high performance liquid chromatography) on a reverse-phase column (C 18). Temperature: 55° C.
Mobile phases for the determination in the acidic range (pH 3.4):
Mobile phase A: acetonitrile+1 ml of formic acid/liter. Mobile phase B: water+0.9 ml of formic acid/liter.
Gradient: from 10% mobile phase A/90% mobile phase B to 95% mobile phase A/5% mobile phase B over 4.25 min.
Calibration was carried out using unbranched alkan-2-ones (having 3 to 16 carbon atoms) with known logP values (determination of the logP values by the retention times using linear interpolation between two successive alkanones). The lambda max values were determined in the maxima of the chromatographic signals using the UV spectra from 200 nm to 400 nm.

[4] = HPLC on a reverse-phase column (C 18), separated α/β isomers

Cc1cc(Br)cc(C)c1C1=C(O)C2(CCC3(CCCO3)CC2)NC1=O (mixture of isomers) [Example I-1-a-8]
% efficacy after 6 days +AMS ([1]; 0.8 ppm): 0% | % efficacy after 6 days +RME ([1]; 0.8 ppm): 20% | % efficacy after 6 days +RME + AMS ([1]; 0.8 ppm): 99% | % efficacy after 6 days without additive ([1]; 0.8 ppm): 0% | % efficacy after 6 days +AMS ([1]; 4 ppm): 98% | % efficacy after 6 days +RME ([1]; 4 ppm): 99% | % efficacy after 6 days +RME + AMS ([1]; 4 ppm): 100% | % efficacy after 6 days without additive ([1]; 4 ppm): 45%

Cc1cc(C)c(C2=C(O)C3(CCC4(CCCO4)CC3)NC2=O)c(C)c1 (mixture of isomers) [Example I-1-a-4]
% efficacy after 6 days +AMS ([1]; 0.8 ppm): 0% | % efficacy after 6 days +RME ([1]; 0.8 ppm): 60% | % efficacy after 6 days +RME + AMS ([1]; 0.8 ppm): 99% | % efficacy after 6 days without additive ([1]; 0.8 ppm): 10% | % efficacy after 6 days +AMS ([1]; 4 ppm): 80% | % efficacy after 6 days +RME ([1]; 4 ppm): 90% | % efficacy after 6 days +RME + AMS ([1]; 4 ppm): 98% | % efficacy after 6 days without additive ([1]; 4 ppm): 75% | % efficacy after 6 days +AMS ([2]; 0.8 ppm): 0% | % efficacy after 6 days +RME ([2]; 0.8 ppm): 15% | % efficacy after 6 days +RME + AMS ([2]; 0.8 ppm): 45% | % efficacy after 6 days without additive ([2]; 0.8 ppm): 10% | % efficacy after 6 days +AMS ([2]; 4 ppm): 75% | % efficacy after 6 days +RME ([2]; 4 ppm): 75% | % efficacy after 6 days +RME + AMS ([2]; 4 ppm): 80% | % efficacy after 6 days without additive ([2]; 4 ppm): 60%

COc1cc(C)cc(Cl)c1C1=C(O)C2(CCC3(CCCO3)CC2)NC1=O (mixture of isomers) [Example I-1-a-13]
Summer barley observed (%) (cereal; 12.5 g of a.i./ha): 20% | Summer barley observed (%) (cereal; 25 g of a.i./ha): 20% | Summer barley observed (%) (cereal; 50 g of a.i./ha): 30%

CCc1cc(Cl)cc(OC)c1C1=C(O)C2(CCC3(CCCO3)CC2)NC1=O (mixture of isomers) [Example I-1-a-11]
Summer wheat observed (%) (Summer wheat; 12.5 g of a.i./ha): 65% | Summer wheat observed (%) (Summer wheat; 25 g of a.i./ha): 70% | Summer wheat observed (%) (Summer wheat; 50 g of a.i./ha): 80% | Summer wheat observed (%) (Summer wheat; 100 g of a.i./ha): 95%

O=C1OC2(CCC3(CCCO3)CC2)C(O)=C1c1cc(-c2ccc(F)cc2)ccc1Cl (centres unmarked) [Example I-2-a-51]
log P* [3, 4]: 3.42

Cc1ccc(-c2ccc(F)cc2)cc1C1=C(OC(=O)C(C)C)C2(CCC3(CCCO3)CC2)OC1=O (centres unmarked) [Example I-2-b-10]
log P* ([3]; compounds of formula (I-2-b)): 5.38

CCc1cc(C)cc(CC)c1C1=C(OC(=O)C(C)(C)C)C2(CCC3(CCCO3)CC2)OC1=O (centres unmarked) [Example I-2-b-23]
log P* ([3]; compounds of formula (I-2-b)): 5.62

COc1cccc(C)c1C1=C(O)C2(CCC3(CCCO3)CC2)OC1=O (single isomer, unassigned) [Example I-2-a-34]
log P* [3, 4]: 2.05

O=C1OC2(CCC3(CCCO3)CC2)C(O)=C1c1cc(-c2ccc(Cl)cc2)ccc1Cl (centres unmarked) [Example I-2-a-21]
log P* [3, 4]: 3.79

COc1cc(C)cc(C)c1C1=C(O)C2(CCC3(CCCO3)CC2)OC1=O (single isomer, unassigned) [Example I-2-a-11]
log P* [3, 4]: 2.66

Cc1cc(C)c(C2=C(OC(=O)C(C)(C)C)C3(CCC4(CCCO4)CC3)OC2=O)c(C)c1 (centres unmarked) [Example I-2-b-17]
log P* ([3]; compounds of formula (I-2-b)): 5.58

COc1cc(C)cc(C)c1C1=C(OC(=O)C(C)(C)C)C2(CCC3(CCCO3)CC2)OC1=O (centres unmarked) [Example I-2-b-21]
log P* ([3]; compounds of formula (I-2-b)): 4.50

CCOC(=O)OC1=C(c2c(CC)cc(C)cc2CC)C(=O)OC12CCC1(CCCO1)CC2 (centres unmarked) [Example I-2-c-4]
log P [3]: 5.28

Cc1ccc(-c2ccc(Cl)cc2)c(C)c1C1=C(OC(=O)C(C)(C)C)C2(CCC3(CCCO3)CC2)OC1=O (centres unmarked) [Example I-2-b-16]
log P* ([3]; compounds of formula (I-2-b)): 6.09

Cc1cc(C)c(-c2ccc(Cl)cc2)cc1C1=C(O)C2(CCC3(CCCO3)CC2)OC1=O (centres unmarked) [Example I-2-a-27]
log P* [3, 4]: 3.60

CCc1cc(Br)cc(C)c1C1=C(O)C2(CCC3(CCCO3)CC2)OC1=O (single isomer, unassigned) [Example I-2-a-7]
log P* [3, 4]: 2.94

Cc1cc(Cl)cc(C)c1C1=C(O)C2(CCC3(CCCO3)CC2)NC1=O (mixture of isomers) [Example I-1-a-6]
% efficacy after 6 days +AMS ([2]; 20 ppm): 5% | % efficacy after 6 days +RME ([2]; 20 ppm): 60% | % efficacy after 6 days +RME + AMS ([2]; 20 ppm): 95% | % efficacy after 6 days without additive ([2]; 20 ppm): 35%

CCOC(=O)OC1=C(c2c(CC)cc(C)cc2CC)C(=O)OC12CCC1(CCCO1)CC2 (centres unmarked) [Example I-2-c-3]
log P [3]: 4.68

Cc1ccc(-c2ccc(F)cc2)cc1C1=C(O)C2(CCC3(CCCO3)CC2)OC1=O (centres unmarked) [Example I-2-a-22]
log P* [3, 4]: 3.0

Cc1cc(C)c(C2=C(O)C3(CCC4(CCCO4)CC3)OC2=O)c(Br)c1 (single isomer, unassigned) [Example I-2-a-33]
log P* [3, 4]: 2.95

CCc1cc(Cl)c(C2=C(O)C3(CCC4(CCCO4)CC3)OC2=O)c(Br)c1 (single isomer, unassigned) [Example I-2-a-39]
log P* [3, 4]: 3.26

CCc1cc(Br)cc(Cl)c1C1=C(O)C2(CCC3(CCCO3)CC2)OC1=O (single isomer, unassigned) [Example I-2-a-37]
log P* [3, 4]: 3.40

Cc1ccc(C)c(C2=C(O)C3(CCC4(CCCO4)CC3)OC2=O)c1 (single isomer, unassigned) [Example I-2-a-3]
log P* [3, 4]: 2.29
